Laboratory results reported in ChEMBL document CHEMBL1671753, “Therapeutic drug monitoring of linezolid: a retrospective monocentric analysis” (Antimicrob Agents Chemother, 2010).

Assays:
[1] = AUC (24 hrs) in patient plasma at 600 mg, iv or 600 mg, po administered every 12 hrs by HPLC; assay type: ADME, organism-based; details: human
[2] = Cmax in patient plasma at 600 mg, iv or 600 mg, po administered every 12 hrs by HPLC; assay type: ADME, organism-based; details: human
[3] = Drug excretion in healthy human urine assessed as unchanged compound at 600 mg, po; assay type: ADME, tissue-based; details: read-out: Activity
Homo sapiens = experiment: Nonrenal clearance in healthy human at 600 mg, po; assay type: ADME, organism-based; details: in vivo
[4] = AUC (12 hrs) in liver transplant patient plasma at 600 mg, iv or 600 mg, po administered every 12 hrs by HPLC; assay type: ADME, organism-based; details: human

CC(=O)NC[C@H]1CN(c2ccc(N3CCOCC3)c(F)c2)C(=O)O1 [LINEZOLID]
AUC [1]: 196 µg·h/mL | Cmax [2]: 14700 ng/mL | dose excreted [3]: 30% | Dose non renally cleared (Homo sapiens): 65% | AUC at 12 h [4]: 413 µg·h/mL
